5 compounds from ChEMBL document CHEMBL1201862, “PubChem BioAssay data set” (2004) can be followed below.

Calls of active or inactive are those of the source. Rule as the data show it, for most assays here: actives have a measured IC50 and inactives only a lower limit. Where only a bound is given, the exact number is not on record here.

Experiment [1] concerns the target T1, Hexokinase HKDC1 (Homo sapiens, UniProt Q2TB90).
T1 sequence (Q2TB90 whole entry): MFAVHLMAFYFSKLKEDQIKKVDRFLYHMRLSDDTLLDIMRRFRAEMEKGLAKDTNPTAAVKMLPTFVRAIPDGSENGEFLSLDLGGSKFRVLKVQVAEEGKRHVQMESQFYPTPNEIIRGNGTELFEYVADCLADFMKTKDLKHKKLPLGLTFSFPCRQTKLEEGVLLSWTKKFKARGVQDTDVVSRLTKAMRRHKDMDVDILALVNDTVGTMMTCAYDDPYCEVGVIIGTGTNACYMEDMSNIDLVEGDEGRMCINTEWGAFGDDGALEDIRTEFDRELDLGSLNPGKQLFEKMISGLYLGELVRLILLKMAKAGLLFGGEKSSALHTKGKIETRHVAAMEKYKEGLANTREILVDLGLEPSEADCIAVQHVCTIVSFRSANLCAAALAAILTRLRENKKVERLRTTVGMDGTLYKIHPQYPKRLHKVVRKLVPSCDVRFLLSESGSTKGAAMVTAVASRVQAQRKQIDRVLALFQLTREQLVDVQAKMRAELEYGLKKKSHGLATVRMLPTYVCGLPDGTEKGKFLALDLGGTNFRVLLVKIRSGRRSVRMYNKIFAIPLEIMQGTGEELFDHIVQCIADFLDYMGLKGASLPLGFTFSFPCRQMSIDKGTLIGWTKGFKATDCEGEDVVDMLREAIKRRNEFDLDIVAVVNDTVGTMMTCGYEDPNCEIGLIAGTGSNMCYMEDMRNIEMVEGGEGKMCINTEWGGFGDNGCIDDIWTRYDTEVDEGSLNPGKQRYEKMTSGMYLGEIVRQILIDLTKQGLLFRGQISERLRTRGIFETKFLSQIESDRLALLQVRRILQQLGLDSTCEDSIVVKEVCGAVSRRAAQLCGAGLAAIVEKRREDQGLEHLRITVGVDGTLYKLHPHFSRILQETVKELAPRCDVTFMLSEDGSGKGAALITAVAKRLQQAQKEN
The experiment is described as follows: activation of HKDC1 glucose phosphorylation – biochemical, W721R variant, dose response (AID 504730). Type of experiment: functional.

The target of experiment [2] is T2, Hexokinase-1 (Homo sapiens, UniProt P19367).
T2 sequence (P19367 whole entry): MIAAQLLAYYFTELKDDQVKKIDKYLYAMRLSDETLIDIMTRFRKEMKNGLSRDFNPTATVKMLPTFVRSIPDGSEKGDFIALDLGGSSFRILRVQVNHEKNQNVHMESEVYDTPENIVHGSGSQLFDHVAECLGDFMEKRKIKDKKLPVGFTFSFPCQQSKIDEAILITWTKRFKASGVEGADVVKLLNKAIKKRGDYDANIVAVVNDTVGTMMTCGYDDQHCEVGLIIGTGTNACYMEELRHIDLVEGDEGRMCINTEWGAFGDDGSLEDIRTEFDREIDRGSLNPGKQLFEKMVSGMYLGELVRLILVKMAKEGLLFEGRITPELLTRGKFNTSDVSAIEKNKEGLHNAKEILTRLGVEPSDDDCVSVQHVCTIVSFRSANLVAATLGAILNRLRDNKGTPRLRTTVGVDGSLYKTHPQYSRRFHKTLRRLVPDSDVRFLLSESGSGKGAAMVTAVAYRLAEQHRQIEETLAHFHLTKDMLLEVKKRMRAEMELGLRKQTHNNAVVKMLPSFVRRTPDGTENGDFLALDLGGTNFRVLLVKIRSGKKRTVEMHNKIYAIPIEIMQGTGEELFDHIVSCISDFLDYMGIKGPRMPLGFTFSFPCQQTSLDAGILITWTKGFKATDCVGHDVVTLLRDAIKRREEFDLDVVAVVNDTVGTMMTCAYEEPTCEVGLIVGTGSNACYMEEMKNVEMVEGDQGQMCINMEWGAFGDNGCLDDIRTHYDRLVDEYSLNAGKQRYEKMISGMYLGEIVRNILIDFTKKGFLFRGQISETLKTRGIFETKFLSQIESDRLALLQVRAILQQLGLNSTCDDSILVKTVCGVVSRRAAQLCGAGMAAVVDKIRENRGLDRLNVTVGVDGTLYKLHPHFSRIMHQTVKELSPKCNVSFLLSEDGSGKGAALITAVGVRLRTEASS
The experiment is described as follows: HK1 enzyme activation by HKDC1 hits – biochemical, selectivity assay for HKDC1 activator project, dose response (AID 504762). Type of experiment: functional.

Experiment [3] addresses T3, CAAX prenyl protease 2 (Saccharomyces cerevisiae S288c, UniProt Q03530).
T3 sequence (Q03530 whole entry): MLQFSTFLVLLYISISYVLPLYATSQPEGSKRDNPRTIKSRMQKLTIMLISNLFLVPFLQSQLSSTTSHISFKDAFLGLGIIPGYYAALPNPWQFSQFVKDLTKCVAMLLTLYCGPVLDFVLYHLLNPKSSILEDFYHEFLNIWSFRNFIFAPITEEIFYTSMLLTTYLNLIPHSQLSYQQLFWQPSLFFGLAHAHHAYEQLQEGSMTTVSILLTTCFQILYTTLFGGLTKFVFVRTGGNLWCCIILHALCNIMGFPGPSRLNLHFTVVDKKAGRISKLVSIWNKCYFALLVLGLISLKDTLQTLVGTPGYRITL
Type of experiment: biochemical.

Experiment [4] concerns the target T4, Heat shock factor protein 1 (Mus musculus, UniProt P38532).
T4 sequence (P38532 whole entry): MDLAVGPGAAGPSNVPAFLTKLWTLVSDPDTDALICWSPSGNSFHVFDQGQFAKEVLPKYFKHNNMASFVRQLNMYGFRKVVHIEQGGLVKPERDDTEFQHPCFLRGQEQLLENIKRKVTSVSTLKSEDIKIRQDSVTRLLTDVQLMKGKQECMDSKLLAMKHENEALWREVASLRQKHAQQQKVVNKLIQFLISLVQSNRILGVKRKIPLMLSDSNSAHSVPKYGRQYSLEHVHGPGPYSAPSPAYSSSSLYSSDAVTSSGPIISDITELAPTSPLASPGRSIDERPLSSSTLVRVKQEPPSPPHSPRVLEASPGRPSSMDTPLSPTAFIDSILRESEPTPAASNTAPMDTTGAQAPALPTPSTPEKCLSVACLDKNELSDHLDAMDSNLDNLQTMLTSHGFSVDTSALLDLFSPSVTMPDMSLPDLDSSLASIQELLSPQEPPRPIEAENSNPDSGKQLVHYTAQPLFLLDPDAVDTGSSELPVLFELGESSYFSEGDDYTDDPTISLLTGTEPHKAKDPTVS
The experiment is described as follows: enhancement of HSF1-driven luciferase signal – cell-based, NIH3T3, luminescence, dose retest, confirmation (AID 435004).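 Also: stress induced by proteasome inhibitor MG132 added 30 min after compound; luciferase reporter driven by HSF1 response element in NIH3T3 cells; actives raise luminescence as potentiators of the MG132 stress response.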 Type of experiment: functional.

In experiment [5] the target is DNA damage-inducible transcript 3 protein (Mus musculus, UniProt P35639). Type of experiment: functional, Cricetulus griseus.
Chain of DNA damage-inducible transcript 3 protein (P35639 whole entry): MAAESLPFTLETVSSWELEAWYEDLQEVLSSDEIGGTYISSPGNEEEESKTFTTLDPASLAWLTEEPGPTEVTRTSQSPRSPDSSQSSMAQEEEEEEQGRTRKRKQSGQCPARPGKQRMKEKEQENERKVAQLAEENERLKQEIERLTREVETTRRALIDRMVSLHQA
Experiment [6] concerns the target T5, Dual specificity protein phosphatase 3 (Homo sapiens, UniProt P51452). The experiment is described as follows: SAR VHR1 absorbance Assay for In Vitro dose response studies. [Related pubchem assays (depositor defined):AID1654, AID1661, AID1878, AID1992, AID2004].
Experiment [7] has as its target T6, Tyrosine-protein phosphatase non-receptor type 7 (Homo sapiens, UniProt P35236).
T6 sequence (P35236 whole entry): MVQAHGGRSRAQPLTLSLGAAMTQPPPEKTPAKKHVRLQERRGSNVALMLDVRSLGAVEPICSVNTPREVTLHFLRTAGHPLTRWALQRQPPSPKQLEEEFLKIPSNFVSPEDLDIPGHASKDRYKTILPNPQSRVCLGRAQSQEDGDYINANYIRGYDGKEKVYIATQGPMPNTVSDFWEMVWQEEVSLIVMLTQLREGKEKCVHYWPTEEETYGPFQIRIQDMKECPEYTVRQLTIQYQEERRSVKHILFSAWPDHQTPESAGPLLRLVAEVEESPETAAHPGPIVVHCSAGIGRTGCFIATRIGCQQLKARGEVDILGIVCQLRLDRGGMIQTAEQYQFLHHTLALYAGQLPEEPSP
The experiment in a line: inhibition of hematopoietic tyrosine phosphatase HePTP – biochemical, set 2, SAR follow-up (AID 449736). Type of experiment: functional.

Experiment [8] deals with T6, Tyrosine-protein phosphatase non-receptor type 7. The experiment is described as follows: redox-active compounds inhibiting HePTP phosphatase – biochemical, fluorescence, mechanism study (AID 2068). Type of experiment: functional.
In experiment [9] the target is T5, Dual specificity protein phosphatase 3. The experiment in a line: SAR VHR1 Fluorescent Assay for In Vitro dose response studies. [Related pubchem assays (depositor defined):AID1654, AID1661, AID1878, AID1992, AID2004, AID2070, AID2085]. Type of experiment: functional.
Experiment [10] has as its target Tyrosine-protein phosphatase non-receptor type 12 (Homo sapiens, UniProt Q05209). The experiment is described as follows: SAR Selectivity Analysis of small molecule inhibitors of PEST using pCAP in a fluorescence assay. [Related pubchem assays (depositor defined):AID1779, AID1784, AID2135]. Type of experiment: functional.
Experiment [11] addresses T7, Tyrosine-protein phosphatase non-receptor type 22 (Homo sapiens, UniProt Q9Y2R2).
T7 sequence (Q9Y2R2 whole entry): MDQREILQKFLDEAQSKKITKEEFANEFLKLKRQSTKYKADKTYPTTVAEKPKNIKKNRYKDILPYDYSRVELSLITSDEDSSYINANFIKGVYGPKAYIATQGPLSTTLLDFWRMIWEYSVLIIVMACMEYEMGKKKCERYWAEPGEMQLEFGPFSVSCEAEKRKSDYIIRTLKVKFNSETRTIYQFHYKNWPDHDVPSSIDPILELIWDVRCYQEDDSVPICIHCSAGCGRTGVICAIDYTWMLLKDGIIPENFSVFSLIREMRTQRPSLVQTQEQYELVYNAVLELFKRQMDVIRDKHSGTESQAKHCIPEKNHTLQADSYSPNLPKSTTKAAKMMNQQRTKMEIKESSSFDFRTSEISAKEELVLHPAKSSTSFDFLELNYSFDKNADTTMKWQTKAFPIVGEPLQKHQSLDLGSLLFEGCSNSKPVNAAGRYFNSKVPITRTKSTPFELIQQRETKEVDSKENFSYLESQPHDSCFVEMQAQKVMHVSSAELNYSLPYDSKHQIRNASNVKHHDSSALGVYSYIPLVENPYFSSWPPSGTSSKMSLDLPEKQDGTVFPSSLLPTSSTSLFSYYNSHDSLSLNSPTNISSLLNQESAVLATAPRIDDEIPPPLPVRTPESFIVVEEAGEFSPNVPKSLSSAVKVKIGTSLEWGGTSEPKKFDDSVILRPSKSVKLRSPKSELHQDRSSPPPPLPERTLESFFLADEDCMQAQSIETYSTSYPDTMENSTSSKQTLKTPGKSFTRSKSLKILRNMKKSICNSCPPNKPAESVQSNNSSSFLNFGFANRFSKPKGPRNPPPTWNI
The experiment is described as follows: SAR LYP1 Fluorescent Assay using OMFP substrate for In Vitro dose response studies - Set 3. [Related pubchem assays (depositor defined):AID1779, AID1784, AID2140, AID2686]. Type of experiment: functional.

In experiment [12] the target is T8, Dual specificity protein phosphatase 6 (Rattus norvegicus, UniProt Q64346).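 Also: confirmatory in vitro dose-response testing of MKP-3 inhibition; recombinant His-tagged MKP-3 made in E. coli BL21 with OMFP substrate.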
T8 sequence (Q64346 whole entry): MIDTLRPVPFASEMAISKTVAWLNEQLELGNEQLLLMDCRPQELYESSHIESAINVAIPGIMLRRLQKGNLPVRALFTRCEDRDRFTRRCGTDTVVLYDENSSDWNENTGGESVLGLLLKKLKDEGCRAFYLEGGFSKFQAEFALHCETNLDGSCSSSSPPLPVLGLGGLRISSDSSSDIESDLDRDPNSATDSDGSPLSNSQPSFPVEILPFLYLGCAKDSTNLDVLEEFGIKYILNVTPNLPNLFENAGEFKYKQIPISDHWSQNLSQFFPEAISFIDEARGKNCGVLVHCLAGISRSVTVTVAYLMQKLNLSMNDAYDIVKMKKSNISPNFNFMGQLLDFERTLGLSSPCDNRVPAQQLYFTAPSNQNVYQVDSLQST
Type of experiment: functional.

In experiment [13] the target is T7, Tyrosine-protein phosphatase non-receptor type 22. The experiment is described as follows: inhibition of lymphoid tyrosine phosphatase LYP – biochemical, pCAP fluorogenic substrate, fluorescence, set 3, SAR follow-up (AID 449727). Type of experiment: functional.

T5 sequence (P51452 whole entry): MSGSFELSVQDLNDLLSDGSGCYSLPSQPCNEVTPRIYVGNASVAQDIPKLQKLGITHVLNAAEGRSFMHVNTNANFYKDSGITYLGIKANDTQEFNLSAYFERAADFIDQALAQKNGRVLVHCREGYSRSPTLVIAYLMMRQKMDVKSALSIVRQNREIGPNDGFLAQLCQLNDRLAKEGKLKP
Chain of Tyrosine-protein phosphatase non-receptor type 12 (Q05209 whole entry): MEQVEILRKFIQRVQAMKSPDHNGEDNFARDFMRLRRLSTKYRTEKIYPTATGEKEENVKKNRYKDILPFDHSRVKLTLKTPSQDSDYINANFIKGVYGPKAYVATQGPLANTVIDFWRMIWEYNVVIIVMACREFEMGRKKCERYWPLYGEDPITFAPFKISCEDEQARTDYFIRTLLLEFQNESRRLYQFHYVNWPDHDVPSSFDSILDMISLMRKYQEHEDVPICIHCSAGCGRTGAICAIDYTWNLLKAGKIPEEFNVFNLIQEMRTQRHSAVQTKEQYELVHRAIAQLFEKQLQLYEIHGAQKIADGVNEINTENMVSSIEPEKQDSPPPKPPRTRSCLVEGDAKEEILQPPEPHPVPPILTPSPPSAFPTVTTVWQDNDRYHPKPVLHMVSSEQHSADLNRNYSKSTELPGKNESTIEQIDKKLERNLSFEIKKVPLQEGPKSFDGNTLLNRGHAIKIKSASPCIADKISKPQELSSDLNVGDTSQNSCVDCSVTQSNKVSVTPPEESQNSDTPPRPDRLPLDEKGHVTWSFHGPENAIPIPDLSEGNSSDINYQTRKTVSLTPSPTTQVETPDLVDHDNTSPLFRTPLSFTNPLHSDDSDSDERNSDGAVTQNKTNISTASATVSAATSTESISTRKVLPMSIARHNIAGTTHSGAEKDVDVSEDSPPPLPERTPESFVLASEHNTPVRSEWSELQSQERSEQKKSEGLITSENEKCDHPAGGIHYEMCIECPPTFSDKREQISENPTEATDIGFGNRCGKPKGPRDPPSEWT

With `O=S(=O)(c1ccc(NC(=S)NN=C(Cc2ccccc2)Cc2ccccc2)cc1)N1CCOCC1`, the EC50 is 7.65 µM (active) in experiment [1] and > 80 µM (inactive) in [2].

On to `O=NNc1nc2ccccc2n1Cc1ccccc1`, for which the EC50 in [1] is 18.3 µM (active); in experiment [2] it was > 80 µM (inactive).

`CC1(C)CC2CC(C)(CN2S(=O)(=O)c2ccc(N)cc2)C1` (stereo not given): the AC50 in experiment [3] is 93.4 µM (active).

Take `Cc1cccc(C)c1N1CCN(c2ccc3nnc(C(F)(F)F)n3n2)CC1`: the concentration for a half-maximal effect (EC50) in experiment [4] is 70 µM (active). Besides, the “Absolute IC50 (CHOP)” value in experiment [5] came to 10 µM.

On to `CSc1ccc(OCC(=O)O)cc1C`, for which the IC50 in [6] is > 100 µM (inactive); in experiment [7], > 100 µM (inactive); in experiment [8], > 100 µM (inactive); in experiment [9], > 99 µM (inactive); in experiment [10], > 100 µM (inactive); in experiment [11] it was > 100 µM (inactive). Moreover, the IC50 in [12] is > 99 µM (inactive); in [13] it was > 100 µM (inactive).

As usually defined, the EC50 is the concentration giving half of the maximal effect. Usually AC50 stands for the midpoint of the concentration-response curve, whichever way the signal moves. A word on the IC50: it is the point on the concentration scale where inhibition reaches its midpoint.
